Test results from ChEMBL document CHEMBL1909046, “DrugMatrix in vitro pharmacology data”.

Legend:
[1] = biological target: Mitogen-activated protein kinase 1 (Homo sapiens, UniProt P28482); experiment: DRUGMATRIX: Protein Serine/Threonine Kinase, ERK2 enzyme inhibition (substrate: Myelin Basic Protein); parameters: species or system Escherichia coli; details: Not Active = under 50% inhibition at 10 µM
[2] = DRUGMATRIX: Sodium/nucleoside co-transporter radioligand binding (ligand: nitrobenzylthioinosine); assay type: cell membranes, Cavia porcellus, Dunkin-Hartley, Cerebral cortex, Membrane; details: Not Active = under 50% inhibition at 10 µM
[3] = biological target: T1, Angiotensin-converting enzyme (Oryctolagus cuniculus, UniProt P12822); assay type: tissue-based, Lung;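 note: enzymatic inhibition of angiotensin-converting enzyme measured with FAPGG as the substrate; in other assays of this panel Not Active means under 50% inhibition at 10 µM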
T1 sequence (P12822 whole entry): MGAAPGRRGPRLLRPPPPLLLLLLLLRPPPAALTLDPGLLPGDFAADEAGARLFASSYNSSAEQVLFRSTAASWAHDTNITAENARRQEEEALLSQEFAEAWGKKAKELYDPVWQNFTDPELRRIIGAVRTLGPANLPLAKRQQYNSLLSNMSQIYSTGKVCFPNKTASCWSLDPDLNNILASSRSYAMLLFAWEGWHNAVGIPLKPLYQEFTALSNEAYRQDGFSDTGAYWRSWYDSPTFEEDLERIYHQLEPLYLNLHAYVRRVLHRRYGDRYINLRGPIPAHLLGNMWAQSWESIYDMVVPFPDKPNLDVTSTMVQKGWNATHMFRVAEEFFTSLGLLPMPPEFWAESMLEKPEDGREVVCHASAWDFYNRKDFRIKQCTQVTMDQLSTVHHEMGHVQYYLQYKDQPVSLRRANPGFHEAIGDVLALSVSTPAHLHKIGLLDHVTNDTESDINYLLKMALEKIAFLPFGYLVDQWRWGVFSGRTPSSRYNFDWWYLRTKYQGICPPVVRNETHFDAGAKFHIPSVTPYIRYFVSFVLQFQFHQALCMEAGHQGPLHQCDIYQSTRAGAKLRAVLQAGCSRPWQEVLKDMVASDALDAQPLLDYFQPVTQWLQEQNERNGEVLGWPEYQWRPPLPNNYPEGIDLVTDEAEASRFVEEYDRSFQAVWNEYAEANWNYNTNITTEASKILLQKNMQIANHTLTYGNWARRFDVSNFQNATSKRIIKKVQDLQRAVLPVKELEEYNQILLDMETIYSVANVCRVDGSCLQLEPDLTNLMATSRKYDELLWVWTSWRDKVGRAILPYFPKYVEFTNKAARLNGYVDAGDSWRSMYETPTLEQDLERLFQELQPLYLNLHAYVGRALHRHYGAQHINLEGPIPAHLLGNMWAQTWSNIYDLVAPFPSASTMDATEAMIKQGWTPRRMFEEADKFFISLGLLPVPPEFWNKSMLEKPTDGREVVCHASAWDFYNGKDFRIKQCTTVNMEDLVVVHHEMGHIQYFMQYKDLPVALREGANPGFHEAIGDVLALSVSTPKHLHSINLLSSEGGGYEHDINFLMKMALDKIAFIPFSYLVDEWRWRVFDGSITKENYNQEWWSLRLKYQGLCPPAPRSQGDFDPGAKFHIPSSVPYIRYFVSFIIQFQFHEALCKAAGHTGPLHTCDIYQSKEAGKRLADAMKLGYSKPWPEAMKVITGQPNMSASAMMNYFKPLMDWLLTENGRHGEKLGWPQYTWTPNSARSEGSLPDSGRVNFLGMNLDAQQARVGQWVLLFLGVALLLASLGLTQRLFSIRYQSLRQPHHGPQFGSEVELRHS

[4] = DRUGMATRIX: ATPase, Na+/K+ enzyme inhibition (substrate: ATP); assay type: tissue-based, Sus scrofa, Heart; details: Not Active = under 50% inhibition at 10 µM
[5] = DRUGMATRIX: Leukotriene, BLT (LTB4) radioligand binding (ligand: [3H]LTB4); assay type: cell membranes, Membrane; details: u-937; Not Active = under 50% inhibition at 10 µM
[6] = biological target: Mitogen-activated protein kinase 3 (Homo sapiens, UniProt P27361); experiment: DRUGMATRIX: Protein Serine/Threonine Kinase, ERK1 enzyme inhibition (substrate: Myelin Basic Protein); parameters: species or system Escherichia coli; details: Not Active = under 50% inhibition at 10 µM
Mitogen-activated protein kinase 3, sequence (P27361 whole entry): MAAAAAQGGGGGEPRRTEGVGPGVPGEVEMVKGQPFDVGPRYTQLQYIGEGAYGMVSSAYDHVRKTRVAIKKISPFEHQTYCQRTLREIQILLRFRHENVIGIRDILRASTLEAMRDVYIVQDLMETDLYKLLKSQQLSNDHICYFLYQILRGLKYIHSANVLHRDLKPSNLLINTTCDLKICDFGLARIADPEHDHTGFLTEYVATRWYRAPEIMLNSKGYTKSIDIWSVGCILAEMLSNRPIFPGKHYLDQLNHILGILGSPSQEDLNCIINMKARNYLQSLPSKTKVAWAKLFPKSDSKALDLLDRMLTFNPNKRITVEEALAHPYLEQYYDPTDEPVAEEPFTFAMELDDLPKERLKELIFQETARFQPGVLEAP

[7] = biological target: T2, Type-2 angiotensin II receptor (Homo sapiens, UniProt P50052); experiment: biochemical; assay type: cell-based, CHO-K1; details: cho-k1; note: in other assays of this panel Not Active means under 50% inhibition at 10 µM
T2 sequence (P50052 whole entry): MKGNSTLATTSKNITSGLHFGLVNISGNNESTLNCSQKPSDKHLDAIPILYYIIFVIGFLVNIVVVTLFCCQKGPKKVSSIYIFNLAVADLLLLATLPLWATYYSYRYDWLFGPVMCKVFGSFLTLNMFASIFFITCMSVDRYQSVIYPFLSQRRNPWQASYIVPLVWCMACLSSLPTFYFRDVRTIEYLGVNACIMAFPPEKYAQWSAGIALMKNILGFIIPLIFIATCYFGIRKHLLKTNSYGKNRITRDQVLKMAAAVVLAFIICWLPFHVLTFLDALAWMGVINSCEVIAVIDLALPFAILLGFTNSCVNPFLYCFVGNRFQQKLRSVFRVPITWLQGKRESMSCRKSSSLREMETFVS

Mitogen-activated protein kinase 1, sequence (P28482 whole entry): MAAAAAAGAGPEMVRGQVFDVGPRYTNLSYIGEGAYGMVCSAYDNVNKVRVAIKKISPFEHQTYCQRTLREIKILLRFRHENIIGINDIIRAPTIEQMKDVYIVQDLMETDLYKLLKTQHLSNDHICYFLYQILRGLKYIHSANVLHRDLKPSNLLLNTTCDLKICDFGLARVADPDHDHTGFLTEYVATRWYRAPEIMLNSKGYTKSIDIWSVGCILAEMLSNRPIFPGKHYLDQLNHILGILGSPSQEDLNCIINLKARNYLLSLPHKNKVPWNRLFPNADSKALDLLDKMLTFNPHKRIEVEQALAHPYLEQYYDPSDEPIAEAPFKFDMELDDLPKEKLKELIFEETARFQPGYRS

CC(C)(C(=O)O)c1ccc(C(O)CCCN2CCC(C(O)(c3ccccc3)c3ccccc3)CC2)cc1 (stereo not given) [FEXOFENADINE]
Not Active: IC50 [1] | IC50 [2] | Ki [2] | IC50 [3] | IC50 [4] | Ki [4] | IC50 [5] | Ki [5] | IC50 [6] | IC50 [7]

CN1CCN(c2c(F)cc3c(=O)c(C(=O)O)cn(CCF)c3c2F)CC1 [FLEROXACIN]
Not Active: IC50 [1] | IC50 [2] | Ki [2] | IC50 [3] | IC50 [4] | Ki [4] | IC50 [5] | Ki [5] | IC50 [6] | IC50 [7]

O=c1[nH]c(=O)n([C@H]2C[C@H](O)[C@@H](CO)O2)cc1F [FLOXURIDINE]
Not Active: IC50 [1] | IC50 [2] | Ki [2] | IC50 [3] | IC50 [4] | Ki [4] | IC50 [5] | Ki [5] | IC50 [6] | IC50 [7]

COC(=O)Nc1nc2cc(C(=O)c3ccc(F)cc3)ccc2[nH]1 [FLUBENDAZOLE]
Not Active: IC50 [1] | IC50 [2] | Ki [2] | IC50 [3] | IC50 [4] | Ki [4] | IC50 [5] | Ki [5] | IC50 [6] | IC50 [7]

CC(=O)OCC(=O)[C@@]1(O)CC[C@H]2[C@@H]3CCC4=CC(=O)CC[C@]4(C)[C@@]3(F)[C@@H](O)C[C@@]21C [FLUDROCORTISONE ACETATE]
Not Active: IC50 [1] | IC50 [2] | Ki [2] | IC50 [3] | IC50 [4] | Ki [4] | IC50 [5] | Ki [5] | IC50 [6] | IC50 [7]

CCOC(=O)c1ncn2c1CN(C)C(=O)c1cc(F)ccc1-2 [FLUMAZENIL]
Not Active: IC50 [1] | IC50 [2] | Ki [2] | IC50 [3] | IC50 [4] | Ki [4] | IC50 [5] | Ki [5] | IC50 [6] | IC50 [7]

CC(=O)OCC(=O)[C@@]12OC(C)(C)O[C@@H]1C[C@H]1[C@@H]3C[C@H](F)C4=CC(=O)C=C[C@]4(C)[C@@]3(F)[C@@H](O)C[C@@]12C [FLUOCINONIDE]
Not Active: IC50 [1] | IC50 [2] | Ki [2] | IC50 [3] | IC50 [4] | Ki [4] | IC50 [5] | Ki [5] | IC50 [6] | IC50 [7]

O=C(O)P(=O)(O)O [FOSCARNET]
Not Active: IC50 [1] | IC50 [2] | Ki [2] | IC50 [3] | IC50 [4] | Ki [4] | IC50 [5] | Ki [5] | IC50 [6] | IC50 [7]

Cc1ccc(C)c(OCCCC(C)(C)C(=O)O)c1 [GEMFIBROZIL]
Not Active: IC50 [1] | IC50 [2] | Ki [2] | IC50 [3] | IC50 [4] | Ki [4] | IC50 [5] | Ki [5] | IC50 [6] | IC50 [7]

O=c1c(-c2ccc(O)cc2)coc2cc(O)cc(O)c12 [GENISTEIN]
Not Active: IC50 [1] | IC50 [2] | Ki [2] | IC50 [3] | IC50 [4] | Ki [4] | IC50 [5] | Ki [5] | IC50 [6] | IC50 [7]

CCC1=C(C)CN(C(=O)NCCc2ccc(S(=O)(=O)NC(=O)N[C@H]3CC[C@H](C)CC3)cc2)C1=O [GLIMEPIRIDE]
Not Active: IC50 [1] | IC50 [2] | Ki [2] | IC50 [3] | IC50 [4] | Ki [4] | IC50 [5] | Ki [5] | IC50 [6] | IC50 [7]

Nc1cc(-c2ccncc2)c[nH]c1=O [INAMRINONE]
Not Active: IC50 [1] | IC50 [2] | Ki [2] | IC50 [3] | IC50 [4] | Ki [4] | IC50 [5] | Ki [5] | IC50 [6] | IC50 [7]

CCCCC1=NC2(CCCC2)C(=O)N1Cc1ccc(-c2ccccc2-c2nnn[nH]2)cc1 [IRBESARTAN]
Not Active: IC50 [1] | IC50 [2] | Ki [2] | IC50 [3] | IC50 [4] | Ki [4] | IC50 [5] | Ki [5] | IC50 [6] | IC50 [7]

CN1CCC(=C2c3ccccc3CC(=O)c3sccc32)CC1 [KETOTIFEN]
Not Active: IC50 [1] | IC50 [2] | Ki [2] | IC50 [3] | IC50 [4] | Ki [4] | IC50 [5] | Ki [5] | IC50 [6] | IC50 [7]

N[C@@H](Cn1ccc(=O)c(O)c1)C(=O)O [L-MIMOSINE]
Not Active: IC50 [1] | IC50 [2] | Ki [2] | IC50 [3] | IC50 [4] | Ki [4] | IC50 [5] | Ki [5] | IC50 [6] | IC50 [7]
